Data as given in EP0167943A2, “Benzimidazole derivatives, process for their preparation, and their use as pharmaceuticals” (BEECHAM GROUP PLC, priority 1984, dated 1986).

Tested on: gastric acid secretion
Test: perfused rat stomach preparation (histamine-stimulated acid secretion, perfusate pH)
Type: in vivo, male Wistar rats
Details: bolus intravenous injection, maximal reduction in hydrogen-ion concentration as percentage of control, histamine infusion, urethane anaesthetised rat
Description: The ability of the compounds of the invention to modify the pH of gastric acid secretion was investigated as follows:
The perfused rat stomach preparation
The lumen of the stomach of male Wistar rats (approximately 200 g bodyweight) was perfused, via a cannula designed to reduce the dead space of the stomach, with 5% glucose solution (37^00) at the rate of 3 ml/min. The perfusate was forced over the surface of the secretory mucosa only, the antrum being excluded. The effluent then passed over a microflow type glass pH electrode via collecting funnel situated in the non-glandular forestomach.
The secretagogue histamine was administered as a constant intravenous infusion to produce a steady rate of acid secretion. Test compounds were administered in solution as bolus intravenous injections and any effect on the pH of the perfusate noted. The perfusate pH was recorded on a potentiometric recorder and anti-secretory responses were measured in terms of the maximal reduction in hydrogen-ion concentration expressed as a percentage of the 'control' concentrations.

| Molecule | Inhibition (dose 2 (µmol/kg)) [%] | other results |
| --- | --- | --- |
| Cc1cnc(C[S+]([O-])c2nc3ccccc3[nH]2)cc1OCc1ccccc1 (centres unmarked) [Example 24b] | – | Inhibition (dose 2.5 (µmol/kg)): 91% |
| Cc1c(OCc2ccccc2)ccnc1C[S+]([O-])c1nc2ccccc2[nH]1 (centres unmarked) [Example 1b, 2-[(4-Benzyloxy-3-methylpyrid-2-yl)methylsulphinyl]-benzimidazole] | – | Inhibition (dose 0.5 µmol/kg): 82% |
| COc1ccc(COc2ccnc(C[S+]([O-])c3nc4ccccc4[nH]3)c2C)cc1 (centres unmarked) [Example 7b, 2-[(4-[4-methoxybenzyloxy]-3-methylpyrid-2-yl)methylsulphinyl]benzimidazole] | 86 | – |
| [O-][S+](Cc1cc(OCCc2ccccc2)ccn1)c1nc2ccccc2[nH]1 (centres unmarked) [Example 18b, 2-[(4'-Phenethyloxypyrid-2-yl)methylsulphinyl]benzimidazole] | 100 | – |
| Cc1c(OCc2ccc(F)cc2)ccnc1C[S+]([O-])c1nc2ccccc2[nH]1 (centres unmarked) [Example 10b, 2-[(4-[4-Fluorobenzyloxy]-3-methylpyrid-2-yl)methylsulphinyl]benzimidazole] | – | Inhibition (dose 1 (µmol/kg)): 80% |
| [O-][S+](Cc1cc(OCc2ccc(F)cc2)ccn1)c1nc2ccccc2[nH]1 (centres unmarked) [Example 21b, 2-[(4-(4-Fluorobenzyloxy)pyrid-2-yl)methylsuphinyl]-benzimidazole] | 100 | – |
| Cc1c(Oc2ccccc2)ccnc1C[S+]([O-])c1nc2ccccc2[nH]1 (centres unmarked) [Example 20b, 2-[(3-Methyl-4-phenoxypyrid-2-yl)methylsulphinyl]-benzimidazole] | 72 | – |
| 2-[(4-[3,5-dichlorobenzyloxy]-3-methylpyrid-2-yl)methyl sulphinyl]benzimidazole [Example 8b] | 80 | – |
